# In the kinase profiling compilation of Christmann-Franck et al. (2016):
# Assays:
# Experiment in all cases: radiometric filter-binding kinase assay, Kinase HotSpot
# Settings in all cases: compound 0.5 µM; ATP 10 µM
# [1] = molecular target: MINK1 (human) (UniProt Q8N4C8)
# [2] = molecular target: CAMK4 (human) (UniProt Q16566)
# [3] = molecular target: PRKCA (human) (UniProt P17252)
# [4] = molecular target: RIPK2 (human) (UniProt O43353)
# [5] = molecular target: STK3 (human) (UniProt Q13188)
# [6] = molecular target: TYRO3 (human) (UniProt Q06418)
# [7] = molecular target: SGK3 (human) (UniProt Q96BR1)
# Sequence of SGK3 (human) (Q96BR1 whole entry, looked up): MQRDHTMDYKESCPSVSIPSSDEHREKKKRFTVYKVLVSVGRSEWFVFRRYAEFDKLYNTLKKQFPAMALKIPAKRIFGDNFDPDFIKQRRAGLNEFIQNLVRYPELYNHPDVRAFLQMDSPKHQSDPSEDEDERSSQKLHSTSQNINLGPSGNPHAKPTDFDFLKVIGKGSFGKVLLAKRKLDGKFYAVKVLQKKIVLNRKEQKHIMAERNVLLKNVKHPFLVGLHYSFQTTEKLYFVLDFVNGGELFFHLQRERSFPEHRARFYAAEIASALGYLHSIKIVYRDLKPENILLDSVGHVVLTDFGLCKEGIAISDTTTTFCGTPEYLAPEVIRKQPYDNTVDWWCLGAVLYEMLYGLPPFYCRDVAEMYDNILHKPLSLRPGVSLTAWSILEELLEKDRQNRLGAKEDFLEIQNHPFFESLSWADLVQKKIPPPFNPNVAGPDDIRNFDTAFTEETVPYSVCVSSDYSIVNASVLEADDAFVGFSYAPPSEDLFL
# [8] = molecular target: BRSK1 (human) (UniProt Q8TDC3)
# [9] = molecular target: CSF1R (human) (UniProt P07333)
# [10] = molecular target: ULK2 (human) (UniProt Q8IYT8)
# [11] = molecular target: MAP2K2 (human) (UniProt P36507)
# [12] = molecular target: SIK2 (human) (UniProt Q9H0K1)
# [13] = molecular target: CDK3 CCNE1 (human) (UniProt Q00526+P24864)
# [14] = molecular target: PRKG2 (human) (UniProt Q13237)
# Sequence of PRKG2 (human) (Q13237 whole entry, looked up): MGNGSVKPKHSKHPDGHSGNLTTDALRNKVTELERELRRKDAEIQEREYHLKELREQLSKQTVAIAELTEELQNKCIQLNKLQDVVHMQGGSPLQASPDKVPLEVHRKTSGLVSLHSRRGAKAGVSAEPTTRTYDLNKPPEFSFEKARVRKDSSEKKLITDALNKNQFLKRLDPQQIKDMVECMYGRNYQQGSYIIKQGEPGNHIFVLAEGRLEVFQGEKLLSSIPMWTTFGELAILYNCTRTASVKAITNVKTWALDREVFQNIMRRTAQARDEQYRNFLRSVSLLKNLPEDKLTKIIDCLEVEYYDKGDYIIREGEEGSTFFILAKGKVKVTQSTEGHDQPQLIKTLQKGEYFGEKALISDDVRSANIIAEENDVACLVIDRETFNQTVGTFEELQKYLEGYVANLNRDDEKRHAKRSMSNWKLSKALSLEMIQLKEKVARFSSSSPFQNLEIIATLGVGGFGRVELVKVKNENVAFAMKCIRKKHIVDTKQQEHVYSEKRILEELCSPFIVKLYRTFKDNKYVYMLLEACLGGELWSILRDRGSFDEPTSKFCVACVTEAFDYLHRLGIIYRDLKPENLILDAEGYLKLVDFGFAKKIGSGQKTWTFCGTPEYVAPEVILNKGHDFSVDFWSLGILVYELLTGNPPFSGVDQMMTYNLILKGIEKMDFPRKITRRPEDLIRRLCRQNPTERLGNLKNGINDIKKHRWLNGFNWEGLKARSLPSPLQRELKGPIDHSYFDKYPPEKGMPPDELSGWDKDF
# [15] = molecular target: EPHA5 (human) (UniProt P54756)
# [16] = molecular target: EGFR (human) (UniProt P00533)
# [17] = molecular target: TSSK1B (human) (UniProt Q9BXA7)
# Sequence of TSSK1B (human) (Q9BXA7 whole entry, looked up): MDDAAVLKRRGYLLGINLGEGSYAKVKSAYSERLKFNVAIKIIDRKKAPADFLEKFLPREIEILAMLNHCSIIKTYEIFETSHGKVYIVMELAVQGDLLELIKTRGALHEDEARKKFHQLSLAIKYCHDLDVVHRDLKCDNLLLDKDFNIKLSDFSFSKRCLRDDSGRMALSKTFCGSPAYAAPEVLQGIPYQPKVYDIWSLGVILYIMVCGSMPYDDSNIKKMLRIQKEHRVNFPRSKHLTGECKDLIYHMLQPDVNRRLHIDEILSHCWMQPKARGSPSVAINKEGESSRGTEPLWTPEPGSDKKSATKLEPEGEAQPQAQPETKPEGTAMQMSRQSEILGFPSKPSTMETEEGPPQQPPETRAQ
# [18] = molecular target: TEK (human) (UniProt Q02763)
# [19] = molecular target: FES (human) (UniProt P07332)
# Sequence of FES (human) (P07332 whole entry, looked up): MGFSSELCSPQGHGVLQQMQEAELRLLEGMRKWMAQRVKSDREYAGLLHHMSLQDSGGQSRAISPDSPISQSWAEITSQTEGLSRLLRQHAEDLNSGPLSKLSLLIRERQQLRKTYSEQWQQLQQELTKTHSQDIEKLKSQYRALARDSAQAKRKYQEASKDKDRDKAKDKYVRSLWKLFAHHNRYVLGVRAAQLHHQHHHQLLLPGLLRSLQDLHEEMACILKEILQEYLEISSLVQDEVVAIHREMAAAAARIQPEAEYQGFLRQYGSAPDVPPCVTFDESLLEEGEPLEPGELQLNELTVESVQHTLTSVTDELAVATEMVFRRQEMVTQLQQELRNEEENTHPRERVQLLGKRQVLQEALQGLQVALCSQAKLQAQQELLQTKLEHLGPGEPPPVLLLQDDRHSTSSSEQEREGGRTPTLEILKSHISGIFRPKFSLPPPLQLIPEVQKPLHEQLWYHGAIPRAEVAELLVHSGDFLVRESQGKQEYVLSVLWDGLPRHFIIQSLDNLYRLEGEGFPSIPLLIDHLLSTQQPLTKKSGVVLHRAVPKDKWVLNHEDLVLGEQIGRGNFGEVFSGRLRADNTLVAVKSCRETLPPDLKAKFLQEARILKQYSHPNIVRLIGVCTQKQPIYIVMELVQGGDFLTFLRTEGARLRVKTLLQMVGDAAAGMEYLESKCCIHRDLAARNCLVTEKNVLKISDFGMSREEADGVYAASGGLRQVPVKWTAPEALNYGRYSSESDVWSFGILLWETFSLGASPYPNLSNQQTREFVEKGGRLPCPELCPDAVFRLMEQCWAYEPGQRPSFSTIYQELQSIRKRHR
# [20] = molecular target: OXSR1 (human) (UniProt O95747)
# [21] = molecular target: RPS6KA2 KD1 KD2 (human) (UniProt Q15349)
# [22] = molecular target: JAK1 JH1 catalytic (human) (UniProt P23458)
# [23] = molecular target: PASK (human) (UniProt Q96RG2)
# [24] = molecular target: IKBKB (human) (UniProt O14920)
# [25] = molecular target: NEK1 (human) (UniProt Q96PY6)
# Sequence of NEK1 (human) (Q96PY6 whole entry, looked up): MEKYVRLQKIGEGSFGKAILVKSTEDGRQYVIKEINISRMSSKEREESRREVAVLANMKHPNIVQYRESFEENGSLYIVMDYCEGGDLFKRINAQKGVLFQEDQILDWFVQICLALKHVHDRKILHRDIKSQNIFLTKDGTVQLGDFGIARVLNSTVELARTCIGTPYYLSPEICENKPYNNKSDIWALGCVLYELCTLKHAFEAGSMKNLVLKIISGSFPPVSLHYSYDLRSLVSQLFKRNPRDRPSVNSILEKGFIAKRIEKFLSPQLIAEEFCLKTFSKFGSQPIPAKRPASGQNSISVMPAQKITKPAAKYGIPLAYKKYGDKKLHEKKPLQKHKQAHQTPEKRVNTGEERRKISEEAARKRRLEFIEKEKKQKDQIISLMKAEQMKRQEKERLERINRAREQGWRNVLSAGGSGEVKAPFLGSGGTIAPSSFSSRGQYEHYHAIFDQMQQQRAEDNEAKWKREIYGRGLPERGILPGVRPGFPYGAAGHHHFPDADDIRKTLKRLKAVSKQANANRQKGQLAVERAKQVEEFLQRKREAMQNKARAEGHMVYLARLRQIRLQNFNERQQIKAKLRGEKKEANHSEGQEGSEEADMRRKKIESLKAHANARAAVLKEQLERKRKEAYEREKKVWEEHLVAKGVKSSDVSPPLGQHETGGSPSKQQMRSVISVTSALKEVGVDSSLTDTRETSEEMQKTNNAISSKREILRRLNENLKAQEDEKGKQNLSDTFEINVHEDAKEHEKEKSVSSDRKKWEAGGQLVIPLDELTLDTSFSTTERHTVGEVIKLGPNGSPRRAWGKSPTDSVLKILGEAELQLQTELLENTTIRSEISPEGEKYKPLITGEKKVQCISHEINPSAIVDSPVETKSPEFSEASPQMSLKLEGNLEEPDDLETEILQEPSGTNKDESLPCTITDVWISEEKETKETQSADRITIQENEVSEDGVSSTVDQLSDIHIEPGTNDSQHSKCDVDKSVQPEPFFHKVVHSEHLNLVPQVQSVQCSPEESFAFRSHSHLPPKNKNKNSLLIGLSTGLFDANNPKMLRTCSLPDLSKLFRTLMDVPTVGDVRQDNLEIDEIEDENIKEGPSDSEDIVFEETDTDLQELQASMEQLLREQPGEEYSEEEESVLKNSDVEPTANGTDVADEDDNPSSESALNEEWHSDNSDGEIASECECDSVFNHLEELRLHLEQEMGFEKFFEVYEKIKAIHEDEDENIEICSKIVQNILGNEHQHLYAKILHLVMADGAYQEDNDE
# [26] = molecular target: RPS6KA1 KD1 KD2 (human) (UniProt Q15418)
# [27] = molecular target: MAPK10 (human) (UniProt P53779)
# [28] = molecular target: PIM2 (human) (UniProt Q9P1W9)
# [29] = molecular target: MAP3K10 (human) (UniProt Q02779)
# [30] = molecular target: MUSK (human) (UniProt O15146)
# [31] = molecular target: PIM3 (human) (UniProt Q86V86)
# [32] = molecular target: MST1R (human) (UniProt Q04912)
# [33] = molecular target: RET (human) (UniProt P07949)
# [34] = molecular target: MATK (human) (UniProt P42679)
# [35] = molecular target: MAPKAPK2 (human) (UniProt P49137)
# [36] = molecular target: PRKCI (human) (UniProt P41743)
# [37] = molecular target: ITK (human) (UniProt Q08881)
# [38] = molecular target: GSK3A (human) (UniProt P49840)
# [39] = molecular target: MAP4K4 (human) (UniProt O95819)
# [40] = molecular target: MAP4K5 (human) (UniProt Q9Y4K4)
# [41] = molecular target: CDK6 CCND3 (human) (UniProt P30281+Q00534)
# Sequence of CDK6 CCND3 (human) (P30281 whole entry, looked up): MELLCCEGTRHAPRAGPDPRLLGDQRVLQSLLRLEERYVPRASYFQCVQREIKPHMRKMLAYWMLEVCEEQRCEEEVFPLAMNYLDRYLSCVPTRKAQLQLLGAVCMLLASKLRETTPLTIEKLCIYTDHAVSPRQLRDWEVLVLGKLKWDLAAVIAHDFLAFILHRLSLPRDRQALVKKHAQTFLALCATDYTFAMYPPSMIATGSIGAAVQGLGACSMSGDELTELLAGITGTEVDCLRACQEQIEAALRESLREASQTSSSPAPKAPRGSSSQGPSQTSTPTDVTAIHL
# Sequence of CDK6 CCND3 (human) (Q00534 whole entry, looked up): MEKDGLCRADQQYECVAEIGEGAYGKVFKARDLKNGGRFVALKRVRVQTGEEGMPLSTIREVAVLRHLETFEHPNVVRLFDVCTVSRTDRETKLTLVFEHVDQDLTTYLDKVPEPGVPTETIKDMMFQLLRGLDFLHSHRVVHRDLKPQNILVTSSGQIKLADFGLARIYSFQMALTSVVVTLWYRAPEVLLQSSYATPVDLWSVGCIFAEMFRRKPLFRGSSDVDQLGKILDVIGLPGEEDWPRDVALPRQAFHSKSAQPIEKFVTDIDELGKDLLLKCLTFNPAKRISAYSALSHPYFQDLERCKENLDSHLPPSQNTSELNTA
# [42] = molecular target: CAMK2B (human) (UniProt Q13554)
smiles,measurement,setting,value
Oc1cccc(-c2nc(N3CCOCC3)c3oc4ncccc4c3n2)c1,residual activity,[1],96%
same,residual activity,[2],103%
same,residual activity,[3],103%
same,residual activity,[4],87.4%
same,residual activity,[5],105%
same,residual activity,[6],102%
same,residual activity,[7],95.8%
same,residual activity,[8],91.1%
same,residual activity,[9],108%
same,residual activity,[10],106%
same,residual activity,[11],85%
same,residual activity,[12],98.9%
same,residual activity,[13],93.9%
same,residual activity,[14],89.2%
same,residual activity,[15],102%
same,residual activity,[16],83.8%
same,residual activity,[17],93.4%
same,residual activity,[18],87.7%
same,residual activity,[19],98.8%
same,residual activity,[20],93.2%
same,residual activity,[21],88.1%
same,residual activity,[22],104%
same,residual activity,[23],83.8%
same,residual activity,[24],98.3%
same,residual activity,[25],77.8%
same,residual activity,[26],79.5%
same,residual activity,[27],102%
same,residual activity,[28],96.9%
same,residual activity,[29],92%
same,residual activity,[30],87.8%
same,residual activity,[31],104%
same,residual activity,[32],94.3%
same,residual activity,[33],99.8%
same,residual activity,[34],86.7%
same,residual activity,[35],97.8%
same,residual activity,[36],94.9%
same,residual activity,[37],93.1%
same,residual activity,[38],90.2%
same,residual activity,[39],91.4%
same,residual activity,[40],82.4%
same,residual activity,[41],89.7%
same,residual activity,[42],98.2%
CCCC(=O)Oc1ccc2[nH]c(C(=O)c3cc4ccccc4[nH]3)cc2c1,residual activity,[1],93.8%
same,residual activity,[2],111%
same,residual activity,[3],102%
same,residual activity,[4],90%
same,residual activity,[5],87%
same,residual activity,[6],101%
same,residual activity,[7],102%
same,residual activity,[8],99.5%
same,residual activity,[9],103%
same,residual activity,[10],98.3%
same,residual activity,[11],98.7%
same,residual activity,[12],97.6%
same,residual activity,[13],88.2%
same,residual activity,[14],97.6%
same,residual activity,[15],97.7%
same,residual activity,[16],95.2%
same,residual activity,[17],78.1%
same,residual activity,[18],100%
same,residual activity,[19],97.8%
same,residual activity,[20],92.4%
same,residual activity,[21],85%
same,residual activity,[22],104%
same,residual activity,[23],88.7%
same,residual activity,[24],98.7%
same,residual activity,[25],94.3%
same,residual activity,[26],91.3%
same,residual activity,[27],100%
same,residual activity,[28],101%
same,residual activity,[29],87.7%
same,residual activity,[30],79.8%
same,residual activity,[31],84.5%
same,residual activity,[32],103%
same,residual activity,[33],100%
same,residual activity,[34],93.4%
same,residual activity,[35],92.4%
same,residual activity,[36],99.2%
same,residual activity,[37],82%
same,residual activity,[38],94.1%
same,residual activity,[39],97.3%
same,residual activity,[40],88%
same,residual activity,[41],92.5%
same,residual activity,[42],90%
O=C1NC(=O)/C(=C/c2ccc3c(c2)OC(F)(F)O3)S1,residual activity,[1],90.1%
same,residual activity,[2],101%
same,residual activity,[3],106%
same,residual activity,[4],88.2%
same,residual activity,[5],100%
same,residual activity,[6],99.6%
same,residual activity,[7],94.7%
same,residual activity,[8],88%
same,residual activity,[9],106%
same,residual activity,[10],100%
same,residual activity,[11],110%
same,residual activity,[12],101%
same,residual activity,[13],99.4%
same,residual activity,[14],104%
same,residual activity,[15],100%
same,residual activity,[16],85.1%
same,residual activity,[17],93.3%
same,residual activity,[18],91.9%
same,residual activity,[19],98.3%
same,residual activity,[20],97.1%
same,residual activity,[21],97.3%
same,residual activity,[22],104%
same,residual activity,[23],78.2%
same,residual activity,[24],96.1%
same,residual activity,[25],79.6%
same,residual activity,[26],71.1%
same,residual activity,[27],102%
same,residual activity,[28],91.9%
same,residual activity,[29],91.2%
same,residual activity,[30],70.9%
same,residual activity,[31],39.8%
same,residual activity,[32],100%
same,residual activity,[33],102%
same,residual activity,[34],93.2%
same,residual activity,[35],94.4%
same,residual activity,[36],95.9%
same,residual activity,[37],92.9%
same,residual activity,[38],88.1%
same,residual activity,[39],95.3%
same,residual activity,[40],88.1%
same,residual activity,[41],92.6%
same,residual activity,[42],99.8%
